Measured values: patent US12138256B2, “Treatment of cardiopulmonary disorders” (Bayer Aktiengesellschaft, priority 2021, dated 2024)
Like-named read-outs stand apart in the source and are kept apart here.

Key:
[1] = system: acetylcholine-induced bronchospasm; experiment: Bronchorelaxation in vivo: acetylcholine-induced bronchoconstriction in Brown Norway rats, RL and Cdyn (C-3.2); design: species or system rat; settings: inhaled 60 minutes before provocation; tiotropium 1 μg/kg; comparative example 11 1, 10 and 100 μg/kg
Description: The bronchoconstriction model (see Hoymann H G. Lung function measurements in rodents in safety pharmacology studies. Front Pharmacol 2012; 3:156) used Male Brown Norway rats (Charles River, Sulzfeld, Germany; 10-12 weeks old) randomized to three treatment groups (comparative example 11, 1 μg/kg, 10 μg/kg, and 100 μg/kg; n=12-13), one positive control group (tiotropium 1 μg/kg; n=12), and one vehicle control group (n=17). Animals were treated with the inhaled test compounds 60 minutes before provocation. Comparative example 11, vehicle, or tiotropium were aerosolized using a micro feeding system and a dispersion nozzle operated with pressurized air. The aerosol concentration was determined by filter sampling with gravimetrical analysis and monitored continuously by a photometer. The lung-deposited doses were assessed from the inhalation dose (Raabe O G, Al-Bayati M A, Teague S V, Rasolt A. Regional Deposition of Inhaled Monodisperse Coarse and Fine Aerosol Particles in Small Laboratory Animals. The Annals of Occupational Hygiene 1988; 32:53-63.). […] After reaching a steady state in respiration, lung function of the spontaneously breathing animal was recorded as baseline values for ≥2 minutes; amongst other parameters, lung resistance (=RL) and dynamic compliance (=Cdyn) were used to assess bronchoconstriction. […]

[2] = system: plasma proteins; experiment: Protein binding via Transil assay, human plasma; type: in vitro ADME; settings: plasma
Description: (§1) The distribution of a test substance between Transil® (phosphatidylcholine lipid bilayers immobilized on silica beads) and plasma is a characteristic feature of any pharmaceutical compound and is dependent on its extent of binding to plasma proteins. By comparing the distribution between Transil® and buffer with the distribution between Transil® and plasma of any species of interest, the unbound fraction in the plasma of the respective animal species can be calculated in vitro. The respective plasma and buffer concentrations were determined via a radioactivity analysis. A detailed description of the method and its validation was published by Schuhmacher et al. (2).

[3] = system: plasma proteins; experiment: Protein binding via Transil assay, dog plasma; type: in vitro ADME; settings: dog plasma
Description: as §1

[4] = Protein binding, minipig plasma (fraction unbound); type: in vitro ADME
Description: as §1

[5] = Thermal stability of the solid (90° C., 7 days, HPLC peak areas); type: physicochemical
Description: 0.3 mg of the test compound, e.g. comparative example 11 were solved in 0.1 ml dimethylsulfoxide and 0.4 ml acetonitrile. Then 1.0 ml water was added. For complete dissolution the HPLC vial was shaken and sonicated. This solution was immediately analyzed by HPLC (reference at t0). 0.3 mg of the test compound was weighed into another HPLC vial. The vial was capped and stored for 7 days in a heating block at 90° C.
After this time the vial was decapped and 0.1 ml dimethylsulfoxide and 0.4 ml acetonitrile were added to the stressed compound. Then 1.0 ml water was added. For complete dissolution the HPLC vial was shaken and sonicated. The sample was analyzed by HPLC (sample after 1 week). The peak areas in percentage are used for quantification.

[6] = Phase I, healthy male subjects, 7 days inhalation: plasma concentrations over time (C-4.1); type: in vivo, human; settings: all doses administered
Description: Healthy White male subjects, aged 18 to 45 years and with a body mass index (BMI) above/equal 18.5 and below/equal 29.9 kg/m2 were treated in a clinical pharmacological phase I study on seven days with inhaled once daily doses of 480 μg or 1000 μg or 2000 μg (2 capsules of 1000 μg) (nominal dose) of dry powder formulations of example 2 or Placebo. The subjects inhaled the drug powder from capsules (see under D-1, e.g. tables 22 and 23) inserted into a handheld inhalation device by one deep inhalative breath. The dry powder formulation of the drug is dispersed into the airstream and fine particles are transported into the deep parts of the lung where it is intended to cause a vasodilation of the blood vessels in PH patients for a substantial reduction of increased blood pressure in the central pulmonary blood vessels in PAH patients or other subtypes of PH. This effect cannot be shown in subjects with healthy lungs. In addition inhaled drug causes a dilation of the bronchial airways and thus also improves disease states of lung diseases in PH patients with pathological bronchoconstriction. This effect was measured via bodyplethysmography as reduction of Specific Airway Resistance in healthy subjects. […]

[7] = system: systemic blood pressure; experiment: First clinical studies in healthy volunteers: systemic blood pressure; type: in vivo, human; settings: up to 4000 μg, dry powder inhaled

## O=C(O)c1ccc(CCN(CCc2ccccc2OCc2ccc(-c3ccc(C(F)(F)F)cc3)cc2Cl)[C@H]2CCCc3nc(C(=O)O)ccc32)cc1 [comparative example 11, (5S)-5-{[2-(4-carboxyphenyl)ethyl][2-(2-{[3-chloro-4′-(trifluoromethyl)[biphenyl]-4-yl]methoxy}phenyl)ethyl]amino}-5,6,7,8-tetrahydroquinoline-2-carboxylic acid]
[1]
  bronchodilatory efficacy (RL): dose-dependent significant (1, 10 and 100 μg/kg) bronchodilating effect
[2]
  ratio of fraction unbound minipig/human: 4.55
[3]
  fraction unbound, times lower than comparative example 1: 10 times
[4]; Minipig (female) plasma, read-out: Fraction unbound
  fraction unbound: 0.00348
[4]; plasma (Transil beads), minipig plasma, read-out: plasma fu (fraction unbound)
  fraction unbound: 0.00348
[5]
  thermal stability: stable

## O=C(O)c1ccc(CCN(CCc2ccccc2OCc2ccc(-c3ccc(C(F)(F)F)cc3)cc2Cl)[C@H]2CCCc3nc(C(=O)O)ccc32)cc1 [example 2, (5S)-{[2-(4-Carboxyphenyl)ethyl][2-(2-{[3-chloro-4′-(trifluoromethyl)biphenyl-4-yl]methoxy}phenyl)-ethyl]amino}-5,6,7,8-tetrahydroquinoline-2-carboxylic acid]
[6]
  persistence of measurable plasma concentration after first inhalation: 48 h

## O=C(O)c1ccc(CCN(CCc2ccccc2OCc2ccc(-c3ccc(C(F)(F)F)cc3)cc2Cl)[C@H]2CCCc3nc(C(=O)O)ccc32)cc1 [example 4, (5S)-{[2-(4-Carboxyphenyl)ethyl][2-(2-{[3-chloro-4′-(trifluoromethyl)biphenyl-4-yl]methoxy}phenyl)-ethyl]amino}-5,6,7,8-tetrahydroquinoline-2-carboxylic acid]
[7]
  effect on systemic blood pressure in healthy volunteers: no clinically meaningful effect on systemic blood pressure
